Results from US8883797B2, “Metalloenzyme inhibitor compounds” (Viamet Pharmaceuticals, Inc., priority 2011, dated 2014).
In brackets after ≈: the same amount, converted by molar mass.

Assays:
[1] = test system: Puccinia recondita tritici; assay: Fungicidal activity vs. leaf rust on wheat plants (PUCCRT); assay type: in vivo, Puccinia recondita tritici=Puccinia triticina; conditions: 50 ppm spray on wheat (variety Yuma); inoculated the following day; severity evaluated 7-9 days later
Source text: D. Evaluation of Fungicidal Activity Vs. Leaf Rust (Causal Agent Puccinia recondita tritici=Puccinia triticina; Bayer Code PUCCRT).
Each pot contained 3-8 seedlings. These plants were sprayed until wet with the formulated test compounds. The compounds were formulated at 50 ppm in 10 vol. % acetone plus 90 vol. % Triton X water (deionized water 99.99 wt %+0.01 wt % Triton X100), giving a “formulated test compound.” Formulated test compounds were applied to plants using a turn table sprayer fitted with two opposing air atomization nozzles which delivered approximately 1500 L/ha of spray volume. On the following day, the leaves were inoculated with an aqueous spore suspension of Puccinia recondita tritici and the plants were kept in high humidity overnight to permit spores to germinate and infect the leaf. The plants were then transferred to a greenhouse until disease developed on untreated control plants. Disease severity was evaluated 7-9 days later, depending on the speed of disease development. Compounds 4(−), 9(+), 11, 13, 18, 21, 25, 26, 27, 28, 32, 34, 37, 38, 39, 42, 43, 48, 51, 52, 56, 57, and 59 were selected for testing against PUCCRT at 50 ppm. Compounds that provided >80% disease control at 50 ppm included 4(−), 9(+), 11, 13, 18, 21, 25, 26, 27, 28, 32, 34, 37, 38, 39, 42, 43, 48, 52, 56, and 57.

[2] = test system: Septoria tritici (ATCC 26517); assay: Minimum Inhibitory Concentration (MIC) (Septoria tritici), CLSI-based microdilution; assay type: cell-based; conditions: Zymoseptoria tritici, ATCC26517, 168 h; S. tritici ATCC 26517; 50% growth reduction; 7 days at 22 °C; read-out: Septoria Rating (MIC)
Method: C. Minimum Inhibitory Concentration (MIC) (Septoria tritici) Compounds of the present disclosure were assessed for their ability to inhibit the growth of a common strain of the fungal plant pathogen Septoria tritici (ATCC 26517) using a procedure based on a Clinical and Laboratory Standards Institute (CLSI) microdilution assay protocol for filamentous fungi. Stock solutions of the test compounds and standards were prepared in DMSO at 6400 μg/mL. Each stock solution was used to prepare a 2-fold dilution series ranging from 16 to 0.016 μg/mL (total of 11 compound concentrations) in RPMI-1640 (Roswell Park Memorial Institute) medium containing 3-(N-morpholino)propanesulfonic acid (MOPS) buffer and 2% DMSO. A 100 μL aliquot of the dilutions was added to columns 1 (16 μg/mL compound) through 11 (0.016 μg/mL compound) of a 96-well microtiter plate. This format was replicated in a second row of the microtiter plate. Thus, each microtiter plate could include 11 concentrations of four test or control compounds replicated twice. A 100 μL aliquot of RPMI-1640/MOPS/2% DMSO medium was added to column 12 (no compound control) of the microtiter plate. A fresh culture of S. tritici was used to prepare a solution of approximately 5×10^4 colony-forming units per milliliter (cfu/mL) in RPMI/MOPS medium without DMSO. A 100 μL aliquot of this solution was added to all 96 wells in the microtiter plate. […] The assay plates were incubated at 22° C. for seven days in the dark without shaking. […] In each case of Table 3 the rating scale is as follows: […]

Compound	MIC [2]	disease control [1]
OC(Cn1cnnn1)(c1ccc(F)cc1F)C(F)(F)c1ccc2cc(Cl)ccc2n1 (stereo not drawn) [4(−), 1-(6-Chloroquinolin-2-yl)-2-(2,4-difluorophenyl)-1,1-difluoro-3-(1H-tetrazol-1-yl)propan-2-ol]	≤ 0.5 µg/mL	> 80%
OC(Cn1cnnn1)(c1ccc(F)cc1F)C(F)(F)c1ccc2cc(Br)ccc2n1 (stereo not drawn) [9(+), 1-(6-Bromoquinolin-2-yl)-2-(2,4-difluorophenyl)-1,1-difluoro-3-(1H-tetrazol-1-yl)propan-2-ol]	≤ 0.5 µg/mL	> 80%
OC(Cn1cnnn1)(c1ccc(F)cc1F)C(F)(F)c1nc2ccc(Cl)cc2s1 (centres unmarked) [Compound 11, 1-(6-Chlorobenzo[d]thiazol-2-yl)-2-(2,4-difluorophenyl)-1,1-difluoro-3-(1H-tetrazol-1-yl)propan-2-ol]	≤ 0.5 µg/mL	> 80%
OC(Cn1cnnn1)(c1ccc(F)cc1F)C(F)(F)c1ccc(Br)s1 (centres unmarked) [Compound 13, 1-(5-Bromothiophen-2-yl)-2-(2,4-difluorophenyl)-1,1-difluoro-3-(1H-tetrazol-1-yl)propan-2-ol]	≤ 0.5 µg/mL	> 80%
OC(Cn1cnnn1)(c1ccc(F)cc1F)C(F)(F)c1ccc2cc(C(F)(F)F)ccc2n1 (centres unmarked) [Compound 18, 2-(2,4-Difluorophenyl)-1,1-difluoro-3-(1H-tetrazol-1-yl)-1-(6-(trifluoromethyl)quinolin-2-yl)propan-2-ol]	≤ 0.5 µg/mL	> 80%
OC(Cn1cnnn1)(c1ccc(F)cc1F)C(F)(F)c1ccc2cc(OC(F)(F)F)ccc2n1 (centres unmarked) [Compound 21, 2-(2,4-Difluorophenyl)-1,1-difluoro-3-(1H-tetrazol-1-yl)-1-(6-(trifluoromethoxy)quinolin-2-yl)propan-2-ol]	≤ 0.5 µg/mL	> 80%

Continued, in another order:

MIC [2]	Compound	disease control [1]
1.5 to 4 µg/mL (≈ 3.18 to 8.47 µM)	OC(Cn1ncnn1)(c1ccc(F)cc1F)C(F)(F)c1cnc(C#Cc2ccc(F)cc2)cn1 (centres unmarked) [Compound 51, 2-(2,4-difluorophenyl)-1,1-difluoro-1-(5-((4-fluorophenyl)ethynyl)pyrazin-2-yl)-3-(2H-tetrazol-2-yl)propan-2-ol]	–
1.5 to 4 µg/mL (≈ 3.15 to 8.4 µM)	OC(Cn1ncnn1)(c1ccc(F)cc1F)C(F)(F)c1cnc(CCc2ccc(F)cc2)cn1 (centres unmarked) [Compound 53, 2-(2,4-Difluorophenyl)-1,1-difluoro-1-(5-(4-fluorophenethyl)pyrazin-2-yl)-3-(2H-tetrazol-2-yl)propan-2-ol]	–
1.5 to 4 µg/mL (≈ 3.07 to 8.19 µM)	OC(Cn1cnnn1)(c1ccc(F)cc1F)C(F)(F)c1cnc2cc(OC(F)(F)F)ccc2n1 (centres unmarked) [Compound 54, 2-(2,4-Difluorophenyl)-1,1-difluoro-3-(1H-tetrazol-1-yl)-1-(6-(trifluoromethoxy)quinoxalin-2-yl)propan-2-ol]	–
1.5 to 4 µg/mL (≈ 3.55 to 9.47 µM)	OC(Cn1cnnn1)(c1ccc(F)cc1F)C(F)(F)c1cnc2cc(F)ccc2n1 (centres unmarked) [Compound 55, 2-(2,4-Difluorophenyl)-1,1-difluoro-1-(6-fluoroquinoxalin-2-yl)-3-(1H-tetrazol-1-yl)propan-2-ol]	–
1.5 to 4 µg/mL (≈ 3.35 to 8.92 µM)	OC(Cn1cnnn1)(c1ccc(F)cc1F)C(F)(F)c1ccc(-c2ccc(F)cc2)nn1 (centres unmarked) [Compound 58, 2-(2,4-Difluorophenyl)-1,1-difluoro-1-(6-(4-fluorophenyl)pyridazin-3-yl)-3-(1H-tetrazol-1-yl)propan-2-ol]	–
0.5 to 1.5 µg/mL (≈ 1.16 to 3.49 µM)	C=Cc1ccc2nc(C(F)(F)C(O)(Cn3cnnn3)c3ccc(F)cc3F)cnc2c1 (centres unmarked) [Compound 59, 2-(2,4-Difluorophenyl)-1,1-difluoro-3-(1H-tetrazol-1-yl)-1-(6-vinylquinoxalin-2-yl)propan-2-ol]	–
1.5 to 4 µg/mL (≈ 2.85 to 7.6 µM)	OC(Cn1cnnn1)(c1ccc(F)cc1F)C(F)(F)c1ccc(-c2ccc(OCC(F)(F)F)cc2)cc1 (centres unmarked) [Compound 60, 2-(2,4-Difluorophenyl)-1,1-difluoro-3-(1H-tetrazol-1-yl)-1-(4′-(2,2,2-trifluoroethoxy)biphenyl-4-yl)propan-2-ol]	–
0.5 to 1.5 µg/mL (≈ 1.12 to 3.36 µM)	OC(Cn1cnnn1)(c1ccc(F)cc1F)C(F)(F)c1ccc(-c2ccc(F)cc2)cc1 (centres unmarked) [Compound 61, 2-(2,4-Difluorophenyl)-1,1-difluoro-1-(4′-fluoro-[1,1′-biphenyl]-4-yl)-3-(1H-tetrazol-1-yl)propan-2-ol]	–
